Assay results as given in patent US20260063641A1, “COMPOSITIONS AND METHODS FOR LABELING AND DETECTING BINDING PARTNERS” (UNIVERSITY OF UTAH RESEARCH FOUNDATION, priority 2022, published 2026).

Biological target: T1, BRD4 (Homo sapiens, UniProt O60885)
T1 construct: host or cells: HEK293 transiently transfected with the BioTAC plasmid
Test: BioTAC proximity labeling, streptavidin pulldown and western blot for BRD4
Type: cell-based
Details: HEK293 transiently transfected with miniTurbo-FKBP12F36V, 100 μM biotin, 30 min time point
Description: Next bifunctional molecule guided-proximity labeling experiments were performed using validated reagents. HEK293 cells transiently transfected with mTurbo-FKBP12F36V were treated with 100 μM biotin, 1 μM bifunctional (+)-JQ1 recruiters, and variable concentrations of free (+)-JQ1 to off-compete the bifunctional molecule and rescue biotinylation. Biotinylated proteins were isolated from cell lysates via streptavidin bead pulldown and analyzed by western blot for BRD4, a primary target of (+)-JQ1.
0.6 million HEK293 cells were plated into wells containing 1 mL of complete media (DMEM, 10% FBS, 1% pen/strep) and incubated overnight. Cells were transiently transfected with 100 μL of OptiMEM media containing 1 μg of BioTAC plasmid and 3 μL of TransIT-2020 transfection reagent (Mirus, MIR5400) for 24 hr. Following a media change, cells were pre-treated with parental molecules or DMSO for 10 min, then treated with bifunctional compound for 10 min, and finally labeled in 100 μM biotin for the indicated time. Cells were washed twice with DPBS then harvested into 1.5 mL tubes. […] Protein concentration was determined by BCA assay (Thermo, 23225), then 100 ug protein was rotated overnight at 4° C. with 8 μL of streptavidin magnetic beads (Thermo, 88817) that had been prewashed twice in RIPA lysis buffer. […]

BRD4 labeling and rescue (immunoblot of streptavidin pulldown): high BRD4-labeling and rescue
SMILES: CC[C@H](C(=O)N1CCCC[C@H]1C(=O)O[C@H](CCc1ccc(OC)c(OC)c1)c1ccccc1OCC(=O)NCCOCCOCCOCCNC(=O)C[C@@H]1N=C(c2ccc(Cl)cc2)c2c(sc(C)c2C)-n2c(C)nnc21)c1cc(OC)c(OC)c(OC)c1 [Cpd1, (R)-1-(2-((17-((S)-4-(4-Chlorophenyl)-2,3,9-trimethyl-6H-thieno[3,2-f][1,2,4]triazolo[4,3-a][1,4]diazepin-6-yl)-2,16-dioxo-6,9,12-trioxa-3,15-diazaheptadecyl)oxy)phenyl)-3-(3,4-dimethoxyphenyl)propyl (S)-1-((S)-2-(3,4,5-trimethoxyphenyl)butanoyl)piperidine-2-carboxylate]
